The record followed here is paper PMC12040169 (PLOS Biology, 2025).

A short description of this series: in vitro. The settings on record: human, hela cells, % viability.

`O=C1c2ccc(OCCOc3ccc4c(c3)C(=O)N(c3ccc(O)cc3)C4=O)cc2C(=O)N1c1ccc(O)cc1` [CBK262668]: the viability at 28.5 h, 10 µM was found to be 91.3%.

Take `COc1ccc(CNC(=O)C2CCCN(c3nc4c(-c5ccccc5)csc4c(=O)[nH]3)C2)cc1` (centres unmarked) [CBK215464]: the viability at 28.5 h, 10 µM worked out at 95.2%.

For `CN(C)S(=O)(=O)N(CC(=O)O)c1ccccc1` [CBK267660], the viability at 28.5 h, 10 µM turned out to be 105%.

Regarding `CC1(C)C(C(=O)O)C1C(=O)NCCc1ccc(O)cc1` (centres unmarked) [CBK286832], the viability at 28.5 h, 10 µM worked out at 104%.

As for `O=C(C1CC1)N1CCc2cc(-c3cn4ccccc4n3)ccc21` [CBK285193], the viability at 28.5 h, 10 µM amounted to 99.2%.

In the case of `Cc1nc(S(=O)(=O)N2CCC(C(=O)N3CCCC3)CC2)cn1C` [CBK305786], the viability at 28.5 h, 10 µM came out at 88.3%.

Take `CC1(C(F)(F)F)OC(NC2C3CC4CC(C3)CC2C4)=NC1=O` (centres unmarked) [CBK115312]: the viability at 28.5 h, 10 µM came out at 114%.

Take `COc1cccc(-c2nc(SCC(=O)Nc3ccc([N+](=O)[O-])cc3)[nH]c(=O)c2C#N)c1` [CBK264912]: the viability at 28.5 h, 10 µM was 105%.

On to `Cn1c(=S)[nH]c2c(-c3ccccc3)c[nH]c2c1=O` [CBK288488], for which the viability at 28.5 h, 10 µM came to 103%.

As to `Cc1nnsc1[S+]([O-])c1ccc(Br)cc1` (centres unmarked) [CBK012927], the viability at 28.5 h, 10 µM turned out to be 96.1%.

Take `O=C1/C(=C\Nc2cccc3cccnc23)Sc2ccccc21` [CBK261647]: the viability at 28.5 h, 10 µM is 93.8%.

Regarding `CCc1nc2c(OCc3ccc(S(C)(=O)=O)cc3)cccn2c1N(CCOC)C(C)=O` [CBK147846], the viability at 28.5 h, 10 µM stood at 87.4%.

With `COc1ccc(C(C)C)cc1-c1cn2ccnc2c(NC2CCOCC2)n1` [CBK066320], the viability at 28.5 h, 10 µM amounted to 94%.

Take `COc1cc([C@@]23CC[C@@H](NC(=O)Nc4ccc(F)c(F)c4)C[C@@H]2N(C)CC3)ccc1O` [CBK049958C]: the viability at 28.5 h, 10 µM came to 90.3%.

For `COc1ccc(Nc2cc(-c3ccco3)ncn2)c(OC)c1` [CBK090761], the viability at 28.5 h, 10 µM came out at 105%.

For `CN(C(=O)c1c[nH]nc1C1CCCN(Cc2cc3ccccc3o2)C1)C1CCCCC1` (centres unmarked) [CBK286492], the viability at 28.5 h, 10 µM came to 102%.

With `COc1cc(NC(=O)c2cc3nc(-c4cccs4)cc(C(F)(F)Cl)n3n2)c(C(C)=O)cc1OC` [CBK268312], the viability at 28.5 h, 10 µM worked out at 100%.

As for `O=C(NCC1COc2ccccc2O1)N1CCCC(CO)C1` (centres unmarked) [CBK156030], the viability at 28.5 h, 10 µM was determined as 91.3%.

For the compound `c1ccc(-c2nnc(CSc3nnc(-c4ccncc4)[nH]3)o2)cc1` [CBK269962], the viability at 28.5 h, 10 µM is 94.9%.

As for `Cc1nc(CN2CCN(c3cccc(C(F)(F)F)n3)CC2)cs1` [CBK304709], the viability at 28.5 h, 10 µM was found to be 93.9%.

As to `CC(=O)NCc1ccc(-c2ccc(C(=O)NC3(c4ccccc4)CCCC3)c(C)n2)cc1` [CBK285891], the viability at 28.5 h, 10 µM was 96%.

Turning to `NC(=S)NC(=O)CN1C(=O)c2ccccc2C1=O` [CBK264111], the viability at 28.5 h, 10 µM was found to be 90.9%.

For `Cc1nc2c(OCc3ccccc3)cccn2c1N(C)C(=O)C1CCCCC1` [CBK147884], the viability at 28.5 h, 10 µM was found to be 96.2%.

`O=C(O)c1ccc(Cl)c(-c2ccc(/C=N\Nc3ccc([N+](=O)[O-])cn3)o2)c1` [CBK263431]: the viability at 28.5 h, 10 µM came to 93.9%.

On to `O=C(Nc1ccc(Cl)cc1)C(Cc1ccccc1)N1C(=O)c2cc(Cl)c(Cl)cc2C1=O` (centres unmarked) [CBK264172], for which the viability at 28.5 h, 10 µM was found to be 99.2%.

Take `CC(=O)N1CCc2cc(C(=O)CN3CCOCC3)ccc21` [CBK291105]: the viability at 28.5 h, 10 µM turned out to be 89.2%.

On to `NC(=O)C1CCN([C@H]2[C@@H]3OC[C@@H](O3)[C@@H](NCc3ccc(F)cc3)[C@@H]2O)CC1` [CBK288830], for which the viability at 28.5 h, 10 µM was determined as 91.2%.

For the compound `CCn1cc(C(=O)NC2CC3(CCCC3)Oc3ccccc32)c(C)n1` (centres unmarked) [CBK282340], the viability at 28.5 h, 10 µM came to 91.2%.

In the case of `COC(=O)Cn1c(=O)c2c(nc3oc(C(C)(C)C)cn32)n(C)c1=O` [CBK306029], the viability at 28.5 h, 10 µM worked out at 84.5%.

Consider `Cn1nccc1C(O)c1cc2n(n1)CCCN(C(=O)Cc1cccs1)C2` (centres unmarked) [CBK306930], for which the viability at 28.5 h, 10 µM was 104%.

In the case of `Cc1nc2ccc(NC(=S)N3c4ccccc4CC3C)cc2nc1C` (centres unmarked) [CBK263169], the viability at 28.5 h, 10 µM came to 62.5%.

`CC1=NN(c2ccc(S(N)(=O)=O)cc2)C(=O)/C1=C\c1ccc(-c2ccc(S(N)(=O)=O)cc2)o1` [CBK263476]: the viability at 28.5 h, 10 µM was 97.4%.

On to `COc1ccc(-n2nnc(C(=O)N3CCCCC3C(N)=O)c2C)cc1` (centres unmarked) [CBK305551], for which the viability at 28.5 h, 10 µM was 98.1%.

With `CN(C)CCN1C(=O)C(O)=C(C(=O)c2ccc(S(=O)(=O)N3CCOCC3)cc2)C1c1ccc(Br)cc1` (centres unmarked) [CBK264693], the viability at 28.5 h, 10 µM amounted to 93.5%.

Take `CCNc1cccnc1N1CCN(C(=O)CCC(=O)c2ccc(NS(C)(=O)=O)cc2)CC1` [CBK010701]: the viability at 28.5 h, 10 µM stood at 98.2%.

As for `Cc1cccc(N2C(=O)NC(=O)C(CCc3ccccn3)(CCc3ccccn3)C2=O)c1C` [CBK269075], under “bulk resorufin, single well”, the viability at 28.5 h, 10 µM was determined as 91.7%.

Regarding `CSCCC(NC(=O)C1CCC(C)CC1)C(=O)O` (centres unmarked) [CBK286552], the viability at 28.5 h, 10 µM came out at 87.5%.

Consider `CN(C(=O)COC(=O)c1cc(-c2ccco2)nc2ccccc12)C1(C#N)CCCCC1` [CBK295591], for which the viability at 28.5 h, 10 µM was determined as 93.2%.

As to `Cc1cccnc1NC(=O)COc1ccc(Cl)cc1` [CBK262175], the viability at 28.5 h, 10 µM is 106%.

On to `COc1ccc(C(O)c2coc3ccc(O)c(CN(C)C)c23)cc1` (centres unmarked) [CBK263083], for which the viability at 28.5 h, 10 µM came to 96.4%.

In the case of `C/C(=N\NC(=O)c1ccccc1I)c1cccc(N)c1` [CBK260935], the viability at 28.5 h, 10 µM was determined as 107%.

With `O=C(NCCc1ccc(O)cc1)C1(c2ccccc2)CCCC1` [CBK149535], the viability at 28.5 h, 10 µM amounted to 84.9%.

Regarding `O=C(Cn1ccc2ccnc(-c3cccs3)c21)N1CCNCC1` [CBK284733], the viability at 28.5 h, 10 µM was found to be 90.9%.

For the compound `CC(=O)c1ccc(-c2cc(C(=O)NCCc3cccnc3)cnc2-c2ccc(F)cc2)s1` [CBK036614], the viability at 28.5 h, 10 µM was 102%.

For `Nc1cccc(-c2cn([C@H]3C[C@@H](O)[C@@H](CO)O3)c(=O)[nH]c2=O)c1` [CBK201262], the viability at 28.5 h, 10 µM was determined as 94.4%.

For `O=C(NCC(=O)N(c1cccc(C(F)(F)F)c1)C(C(=O)NCc1ccco1)c1ccccc1F)c1ccco1` (centres unmarked) [CBK084740], the viability at 28.5 h, 10 µM came to 96%.

Regarding `COc1ccc([C@@]23CC[C@@H](NC(=O)Nc4cccc(Br)n4)C[C@@H]2N(C)CC3)cc1OC` [CBK045703], the viability at 28.5 h, 10 µM turned out to be 85.4%.

`CN1C(=O)C(CCNc2ccccc2)S/C1=N/C1CC2C=CC1C2` (centres unmarked) [CBK073812]: the viability at 28.5 h, 10 µM is 114%.

Consider `Cc1cc(C)cc(S(=O)(=O)c2ccc3ccnc(N4CCCNCC4)c3c2)c1` [CBK036413C], for which the viability at 28.5 h, 10 µM is 87.1%.

With `Nc1ncc([C@H]2C[C@@H](O)[C@@H](CO)O2)c(=O)[nH]1` [CBK201246], the viability at 28.5 h, 10 µM stood at 79.8%.

Take `COc1ccccc1[C@@H]1C[C@H](OC(=O)c2ccc(F)cc2)C(=O)N1C` [CBK283598]: the viability at 28.5 h, 10 µM turned out to be 92%.

For the compound `c1ccc(-c2nnc(-c3ccco3)c(-c3ccco3)n2)cc1` [CBK286196], the viability at 28.5 h, 10 µM turned out to be 83.7%.

In the case of `COc1ccccc1CN(Cc1cccnc1)C(=O)CCC(F)(F)F` [CBK307713], the viability at 28.5 h, 10 µM amounted to 92.3%.

Turning to `O=c1[nH]c(=O)c2c3c(sc2[nH]1)CCCC3` [CBK027724], the viability at 28.5 h, 10 µM is 67.6%.

Turning to `COc1ccc(C=C2CCCC3C2=NN(C(=O)CCC(=O)O)C3c2ccc(OC)c(OC)c2)cc1OC` (centres unmarked) [CBK296070], the viability at 28.5 h, 10 µM was found to be 107%.

As to `O=c1[nH]cccc1-c1noc(-c2cnccn2)n1` [CBK288538], the viability at 28.5 h, 10 µM worked out at 90%.

For the compound `Nc1ncc(-c2cccc(O)c2)nc1NCc1ccco1` [CBK063675], the viability at 28.5 h, 10 µM amounted to 92.1%.

Regarding `COc1cccc(OC)c1OCCN1CCNCC1` [CBK265089G], the viability at 28.5 h, 10 µM amounted to 90.7%.

Regarding `O=C(C1CC1)N1CCC(n2nc(-c3cccs3)ccc2=O)CC1` [CBK284213], the viability at 28.5 h, 10 µM is 94.7%.

As for `CC(C)(C)CC(=O)N1C[C@@H]2C[C@H](C1)c1ccc(NC(=O)Nc3ccccc3)c(=O)n1C2` [CBK289176], the viability at 28.5 h, 10 µM came to 85.8%.

As for `Cc1ccc(NC(=O)c2nc3ccccc3[nH]2)c(C)n1` [CBK200296], the viability at 28.5 h, 10 µM was determined as 94.4%.

Turning to `CCc1c(C)nc2c(C(=O)NCCSC)cnn2c1C` [CBK162147], the viability at 28.5 h, 10 µM amounted to 97.2%.

`COc1cc(OC)cc(C(=O)N2CCC3(CC2)CC(=O)c2ccc(OCCN(C)C)cc2O3)c1` [CBK169008T]: the viability at 28.5 h, 10 µM amounted to 92.8%.

As to `Cc1cccc(CN(CC(C)(C)CN)C(=O)NC(C)c2cccc3ccccc23)n1` (centres unmarked) [CBK002423C], the viability at 28.5 h, 10 µM came to 84.4%.

As to `Cc1c(CC(=O)O)c(=O)oc2cc(OCc3ccc(F)cc3)ccc12` [CBK286674], the viability at 28.5 h, 10 µM amounted to 103%.

Turning to `COc1ccc(CC(=O)N2CCCC2c2nc3ccccc3[nH]2)cc1` (centres unmarked) [CBK283666], the viability at 28.5 h, 10 µM is 93.4%.

For the compound `CCC(NC(=O)Nc1cc(N2CCOCC2)ccc1Cl)c1nccs1` (centres unmarked) [CBK306519], the viability at 28.5 h, 10 µM turned out to be 93.2%.

For the compound `CCOc1ccc(-c2ccnc(N3CCN(CC)CC3)n2)cc1C(=O)O` [CBK307697], the viability at 28.5 h, 10 µM stood at 80.6%.

For the compound `CN(C)CCN1C(=O)CCc2ccccc21` [CBK023390C], the viability at 28.5 h, 10 µM turned out to be 102%.

As to `CC(CNS(=O)(=O)c1cc(Cl)ccc1Cl)CN(C)C` (centres unmarked) [CBK266808], the viability at 28.5 h, 10 µM turned out to be 108%.

Turning to `O=C(CSc1nc2ccccc2[nH]1)n1c2c(c3ccccc31)CCCC2` [CBK263945], the viability at 28.5 h, 10 µM was found to be 92.8%.

Regarding `COC(=O)c1ccc(NC(=O)c2ccccc2-c2ccccc2C(=O)O)cc1` [CBK265759], the viability at 28.5 h, 10 µM came to 110%.

As for `O=C(NCC1COc2ccccc2O1)N1CCN(c2ccc(F)cc2)CC1` (centres unmarked) [CBK156387], the viability at 28.5 h, 10 µM stood at 92.8%.

Regarding `COc1ccc(Cl)cc1NC(=O)CN(c1ccccc1)S(=O)(=O)c1ccc(Cl)cc1` [CBK265261], the viability at 28.5 h, 10 µM turned out to be 105%.

For the compound `Cc1nccn1CCNC(=O)CC1C(=O)N(C)c2ccccc21` (centres unmarked) [CBK281977], the viability at 28.5 h, 10 µM stood at 101%.

Regarding `Cc1nc(CCNCc2c(C)nn(C)c2N2CCOCC2)cs1` [CBK304054], the viability at 28.5 h, 10 µM came to 101%.

Take `CCOc1ccc(-c2c3c(c(-c4ccccc4)n2-c2ccc(N)cc2)C(=O)c2ccccc2C3=O)cc1` [CBK262685]: the viability at 28.5 h, 10 µM stood at 40%.
